Data taken from patent publication US12599136B2, “Substituted isophthalic acid diamides and their use as herbicides” (Bayer Aktiengesellschaft, priority 2020, dated 2026).

How the values were obtained:
Type in all cases: in vivo
[1] = tested on: Abutilon theophrasti; test: Pre-emergence herbicidal action against ABUTH; settings: visual score after 3 weeks vs untreated controls
Method in brief: (§1)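 Greenhouse pots of sandy loam held seeds covered with soil, onto which the compound was applied before emergence. An aqueous suspension or emulsion of WP or EC was used at 600 to 800 l/ha with 0.2% wetting agent. Percent damage was judged visually at 3 weeks.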

[2] = tested on: Setaria viridis; test: Pre-emergence herbicidal action against SETVI
Method in brief: as §1

[3] = tested on: Cyperus esculentus; test: Post-emergence herbicidal action against CYPES; settings: 80 g/ha, visual assessment about 3 weeks after treatment
Method in brief: (§2)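 A WP or EC formulation diluted in water with 0.2% wetting agent was sprayed at 600 to 800 l/ha onto one-leaf-stage plants grown in sandy loam. About 3 weeks later, action was rated visually in percent, 100% being dead plants.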

[4] = tested on: Hordeum murinum; test: Post-emergence herbicidal action against HORMU
Method in brief: as §2

[5] = tested on: Veronica persica; test: Post-emergence herbicidal action against VERPE; settings: visual assessment about 3 weeks after treatment
Method in brief: as §2

[6] = tested on: Pharbitis purpurea; test: Pre-emergence herbicidal action against PHBPU; settings: 320 g/ha; visual score after 3 weeks vs untreated controls
Method in brief: as §1

[7] = tested on: Setaria viridis; test: Post-emergence herbicidal action against SETVI; settings: visual assessment about 3 weeks after treatment
Method in brief: as §2

[8] = tested on: Avena fatua; test: Post-emergence herbicidal action against AVEFA; settings: visual assessment about 3 weeks after treatment
Method in brief: as §2

[9] = tested on: Viola tricolor; test: Post-emergence herbicidal action against VIOTR
Method in brief: as §2

[10] = tested on: Alopecurus myosuroides; test: Post-emergence herbicidal action against ALOMY
Method in brief: as §2

[11] = tested on: Lolium rigidum; test: Pre-emergence herbicidal action against LOLRI; settings: 320 g/ha
Method in brief: as §1

[12] = tested on: Abutilon theophrasti; test: Post-emergence herbicidal action against ABUTH
Method in brief: as §2

[13] = tested on: Avena fatua; test: Pre-emergence herbicidal action against AVEFA; settings: visual score after 3 weeks vs untreated controls
Method in brief: as §1

[14] = tested on: Amaranthus retroflexus; test: Pre-emergence herbicidal action against AMARE; settings: visual score after 3 weeks vs untreated controls
Method in brief: as §1

[15] = tested on: Hordeum murinum; test: Pre-emergence herbicidal action against HORMU; settings: visual score after 3 weeks vs untreated controls
Method in brief: as §1

[16] = tested on: Lolium rigidum; test: Post-emergence herbicidal action against LOLRI; settings: 80 g/ha
Method in brief: as §2

[17] = tested on: Matricaria inodora; test: Pre-emergence herbicidal action against MATIN; settings: visual score after 3 weeks vs untreated controls
Method in brief: as §1

[18] = tested on: Veronica persica; test: Pre-emergence herbicidal action against VERPE; settings: 320 g/ha
Method in brief: as §1

[19] = tested on: Stellaria media; test: Pre-emergence herbicidal action against STEME
Method in brief: as §1

[20] = tested on: Pharbitis purpurea; test: Post-emergence herbicidal action against PHBPU; settings: visual assessment about 3 weeks after treatment
Method in brief: as §2

[21] = tested on: Echinochloa crus-galli; test: Post-emergence herbicidal action against ECHCG; settings: visual assessment about 3 weeks after treatment
Method in brief: as §2

[22] = tested on: Polygonum convolvulus; test: Post-emergence herbicidal action against POLCO; settings: 80 g/ha, visual assessment about 3 weeks after treatment
Method in brief: as §2

[23] = tested on: Matricaria inodora; test: Post-emergence herbicidal action against MATIN; settings: visual assessment about 3 weeks after treatment
Method in brief: as §2

[24] = tested on: Cyperus esculentus; test: Pre-emergence herbicidal action against CYPES; settings: 320 g/ha; visual score after 3 weeks vs untreated controls
Method in brief: as §1

[25] = tested on: Alopecurus myosuroides; test: Pre-emergence herbicidal action against ALOMY; settings: visual score after 3 weeks vs untreated controls
Method in brief: as §1

[26] = tested on: Stellaria media; test: Post-emergence herbicidal action against STEME; settings: visual assessment about 3 weeks after treatment
Method in brief: as §2

[27] = tested on: Echinochloa crus-galli; test: Pre-emergence herbicidal action against ECHCG; settings: visual score after 3 weeks vs untreated controls
Method in brief: as §1

[28] = tested on: Amaranthus retroflexus; test: Post-emergence herbicidal action against AMARE; settings: visual assessment about 3 weeks after treatment
Method in brief: as §2

[29] = tested on: Viola tricolor; test: Pre-emergence herbicidal action against VIOTR
Method in brief: as §1

CN(CC1CC1)C(=O)c1c(C(F)(F)F)ccc(C(=O)Nc2nnnn2C)c1Cl [Example 1-126]
Pre-emergence action against ABUTH ([1]; 20 g/ha): 100% | Pre-emergence action against ABUTH ([1]; 80 g/ha): 100% | Pre-emergence action against ABUTH ([1]; Dosage column 320 g/ha (heading prints 3200 g/ha)): 100% | Pre-emergence action against SETVI ([2]; 80 g/ha): 90% | Pre-emergence action against SETVI ([2]; 320 g/ha): 100% | Post-emergence action against CYPES in % [3]: 80% | Post-emergence action against HORMU in % ([4]; 20 g/ha): 100% | Post-emergence action against HORMU in % ([4]; 80 g/ha): 100% | Post-emergence action against VERPE in % ([5]; 20 g/ha): 80% | Post-emergence action against VERPE in % ([5]; 80 g/ha): 80% | Pre-emergence action against PHBPU [6]: 80% | Post-emergence action against SETVI in % ([7]; 5 g/ha): 100% | Post-emergence action against SETVI in % ([7]; 20 g/ha): 100% | Post-emergence action against SETVI in % ([7]; 80 g/ha): 100% | Post-emergence action against AVEFA in % ([8]; 20 g/ha): 100% | Post-emergence action against AVEFA in % ([8]; 80 g/ha): 100% | Post-emergence action against VIOTR in % ([9]; 5 g/ha): 90% | Post-emergence action against VIOTR in % ([9]; 20 g/ha): 100% | Post-emergence action against VIOTR in % ([9]; 80 g/ha): 100% | Post-emergence action against ALOMY ([10]; 5 g/ha): 90% | Post-emergence action against ALOMY ([10]; 20 g/ha): 100% | Post-emergence action against ALOMY ([10]; 80 g/ha): 100% | Pre-emergence action against LOLRI [11]: 90% | Post-emergence action against ABUTH ([12]; 5 g/ha): 100% | Post-emergence action against ABUTH ([12]; 20 g/ha): 100% | Post-emergence action against ABUTH ([12]; 80 g/ha): 100% | Pre-emergence action against AVEFA ([13]; 80 g/ha): 80% | Pre-emergence action against AVEFA ([13]; 320 g/ha): 100% | Pre-emergence action against AMARE ([14]; 20 g/ha): 80% | Pre-emergence action against AMARE ([14]; 80 g/ha): 90% | Pre-emergence action against AMARE ([14]; 320 g/ha): 100% | Pre-emergence action against HORMU ([15]; 80 g/ha): 80% | Pre-emergence action against HORMU ([15]; 320 g/ha): 100% | Post-emergence action against LOLRI in % [16]: 90% | Pre-emergence action against MATIN ([17]; 20 g/ha): 80% | Pre-emergence action against MATIN ([17]; 80 g/ha): 100% | Pre-emergence action against MATIN ([17]; 320 g/ha): 100% | Pre-emergence action against VERPE [18]: 90% | Pre-emergence action against STEME ([19]; 20 g/ha): 80% | Pre-emergence action against STEME ([19]; 320 g/ha): 90% | Post-emergence action against PHBPU in % ([20]; 5 g/ha): 90% | Post-emergence action against PHBPU in % ([20]; 20 g/ha): 90% | Post-emergence action against PHBPU in % ([20]; 80 g/ha): 100% | Post-emergence action against ECHCG in % ([21]; 5 g/ha): 80% | Post-emergence action against ECHCG in % ([21]; 20 g/ha): 100% | Post-emergence action against ECHCG in % ([21]; 80 g/ha): 100% | Post-emergence action against POLCO in % [22]: 80% | Post-emergence action against MATIN in % ([23]; 5 g/ha): 80% | Post-emergence action against MATIN in % ([23]; 20 g/ha): 90% | Post-emergence action against MATIN in % ([23]; 80 g/ha): 100% | Pre-emergence action against CYPES [24]: 90% | Pre-emergence action against ALOMY ([25]; 80 g/ha): 80% | Pre-emergence action against ALOMY ([25]; 320 g/ha): 90% | Post-emergence action against STEME in % ([26]; 5 g/ha): 100% | Post-emergence action against STEME in % ([26]; 20 g/ha): 100% | Post-emergence action against STEME in % ([26]; 80 g/ha): 100% | Pre-emergence action against ECHCG ([27]; 80 g/ha): 90% | Pre-emergence action against ECHCG ([27]; 320 g/ha): 100% | Post-emergence action against AMARE in % ([28]; 5 g/ha): 100% | Post-emergence action against AMARE in % ([28]; 20 g/ha): 100% | Post-emergence action against AMARE in % ([28]; 80 g/ha): 100% | Pre-emergence action against VIOTR ([29]; 80 g/ha): 100% | Pre-emergence action against VIOTR ([29]; 320 g/ha): 100%
